Columns and labels:
[1] = system: colorectal (HCT116), breast (MCF-7) and non-small cell lung (H1299, A549, H358 and H460) cell line models; assay: Colony forming assay; assay type: cell-based; details: increasing concentrations between 0.5 and 2.5 μmol/L; all cell lines evaluated
Protocol: Colony forming assay showing the ability of colon (SW620, HCT116), non-small cell lung (A549, H460, H1299 and H358) and breast (MCF7) cancer cells to survive and proliferate following transient 24 hour exposure to test compounds, FUdR and combinations are determined. Specifically, cells are seeded at densities between 50 and 100 cells/well in 24-well plates. Twenty-four hours later, cells are treated with increasing concentrations of a test compound, a fixed dose of FUdR and combinations of these. After 24 hours, drug is removed, cells are rinsed and allowed to outgrow for 10-14 days. At the conclusion of the outgrowth, cells are fixed in 60% ice cold methanol and stained with 0.1% crystal violet, scanned and counted. Data is presented as percentage of untreated controls (mean±SD). Fraction affected and combination indexes are calculated according to the method of Chou and Talalay where <1 is indicative of a synergistic drug interaction.
Colony forming assays are performed to evaluate the effectiveness of test compounds alone and in combination with the fluoropyrimidine thymidylate synthase (TS) inhibitor fluorodeoxyuridine (FUdR) at reducing cancer cell viability in colorectal (HCT116), breast (MCF-7) and non-small cell lung (H1299, A549, H358 and H460) cell line models. […]

[2] = system: colorectal (HCT116 and SW620) cell line models; assay: MTS growth inhibition assay; assay type: cell-based; details: increasing concentrations between 0 and 100 μmol/L; both colorectal cancer cell lines evaluated
Protocol: The Cell Titer AQueous MTS assay (Promega) is carried out according to the manufacturers guidelines. […] The combination effect is determined by the combination index (CI) method utilizing Calcusyn software (Biosoft, Ferguson, Mo.). Fraction affected (FA) is calculated from the percent growth inhibition: FA=[…]. CI values <1, synergism; 1-1.2, additive and >1.2, antagonism.
Test compounds are evaluated for their antitumor activity in colorectal cancer cells using the MTS growth inhibition assay. HCT116 and SW620 cells are exposed to increasing concentrations of each agent for 72 hours and growth inhibition is directly compared to vehicle-treated controls. The NSCLC cell lines A549 and H1299 are exposed to increasing concentrations of each agent for 72 hours and growth inhibition is directly compared to vehicle-treated controls.
MTS growth inhibition assays are performed to evaluate the effectiveness of the test compounds alone and in combination with the fluoropyrimidine thymidylate synthase (TS) inhibitor 5-fluorouracil (5-FU) at inhibiting the growth of colorectal (HCT116 and SW620) cell line models. […] Simultaneous treatment with increasing concentrations of 5-FU and a test compound at fixed concentrations of 25 μmol/L is determined.

| Compound | colonies formed [1] | growth inhibition [2] |
| --- | --- | --- |
| O=c1[nH]c(=O)n([C@H]2C[C@H](O)[C@@H](CO)O2)cc1F [FUdR, fluorodeoxyuridine] | dose-dependent decreases in colonies formed | – |
| O=c1[nH]cc(F)c(=O)[nH]1 [Compound 5-FU, 5-fluorouracil] | – | dose-dependent increases in growth inhibition |

Source: patent publication US11198677B2, “Deoxyuridine triphosphatase inhibitors containing amino sulfonyl linkage” (University of Southern California, priority 2015, dated 2021)
